# Laboratory results taken from a melting point compilation (Tetko et al.; mined from patent text by program, amines drawn as free bases though some values may be those of a salt).
row,SMILES,melting point
1,CCCN(Cc1ccc(-c2ccccc2-c2nnn[nH]2)cc1)c1nc(OCc2ccccc2)ccc1C(=O)O,68 to 82 °C
2,CCOC(=O)C1=CC=C2C(=CNN2CC)N1NN=C(C)CC#N,190 to 191 °C
3,COc1ccc(NC(=O)c2c(C)c([N+](=O)[O-])cc3nc(OC)c(OC)nc23)cc1,206 to 208 °C
4,O=C(NCc1ccccc1Cl)c1cccnc1OCc1cccnc1,91 to 93 °C
5,O=C(NCCCCCCOC(=O)N1CCC(OC(=O)N2CCCCC2)CC1)Oc1ccc(Oc2ccccc2)cc1,56 to 61 °C
6,COc1cc(N)c(Cl)cc1C(=O)NCC1CCN(CCCCCNCc2cccs2)CC1,67 to 69 °C
7,[N-]=[N+]=C1C(=O)Oc2cc(OCc3ccccc3)ccc2C1=O,191 °C
8,COc1ccc2oc(=O)c(-c3ccccc3)c(OCCN3CCOCC3)c2c1,118 °C
9,CNC(=O)CS(=O)(=O)c1ccccc1,106 to 109 °C
10,CCC(=O)C(=Cc1cc(O)c(O)c([N+](=O)[O-])c1)C(=O)CC,133 to 135 °C
11,COc1cc2c(c3c1OC(C)(C)C3)C(c1cccc(-c3ccc(NC=O)cc3)c1)=NC(C)(C)C2,129 to 133 °C
12,Cc1nc(N)nc(N)c1C=CC(C)(C)c1ccc(F)cc1,164 to 168 °C
13,CNS(=O)(=O)c1cc(C)sc1CC(=O)O,109 °C
14,CC(C)(C)OC(=O)NC[C@H]1C[C@H]1CON1C(=O)c2ccccc2C1=O (relative stereo),96 to 97 °C
15,O=c1nc(-c2cccc(CSCc3ccccc3)n2)sc2ccccc12,126 to 128 °C
16,COC(=O)Nc1nc2cc(C(O)c3ccc(F)cc3)ccc2[nH]1 (centres undefined),300 °C
17,O=C1Nc2cccnc2N(C(=O)CCN2CCN(Cc3ccccc3)CC2)c2ccccc21,205 to 207 °C
18,CC(COc1ccccc1)C1SC(=O)NC1=O (centres undefined),106 to 108 °C
19,CC(=O)Oc1ccc(C(=O)OC2C=C(C)C(=O)CC(C)(C)C2O)cc1 (centres undefined),132 to 133 °C
20,c1ccc2c(c1)NC(CN1CCOCC1)CO2 (centres undefined),117 to 121 °C
21,COCCOc1cc(Oc2ccccc2)cnc1Nc1nccs1,141 °C
22,COC(=O)CN(NC(N)=O)c1ccc(Oc2ccccc2)cc1,110 to 113 °C
23,COc1ccccc1Sc1c(Cl)nc(C)nc1NS(=O)(=O)c1ccc(C(C)(C)C)cc1,155 °C

row,SMILES,melting point
1,CC(=O)Nc1cc(CN(C)C)c2ncc(C#N)c(Nc3cccc(Br)c3)c2c1,162 to 167 °C
2,O=C(c1cccc(O)c1)C(O)c1cccc(O)c1 (centres undefined),159 to 162 °C
3,CSc1cc(C(C)(C)C)c(O)c(-c2nc3ccc(S(=O)(=O)C(F)(F)F)cc3[nH]2)c1C,210 to 211 °C
4,Cc1cc(Cl)cc(C(=O)NC2(C)CS(=O)(=O)C2)c1NC(=O)c1cc(C(F)(F)F)nn1-c1ncccc1Cl,168 to 171 °C
5,COC(=O)C1(O/N=C(\C(=O)OC(c2ccccc2)c2ccccc2)c2csc(NC(c3ccccc3)(c3ccccc3)c3ccccc3)n2)CCCCC1,180 to 182 °C
6,O=C(Nc1ccccc1)c1cc(Oc2ccc3c(c2)CCN3C(=O)Nc2cccc(C(F)(F)F)c2)ncn1,227 to 229 °C
7,O=C(NCc1ccccn1)Nc1cc(N2C(=O)CCc3ccccc32)ccn1,194 to 195 °C
8,CN(CCF)C(=O)c1cc2ccccc2c(-c2ccccc2I)n1,142 to 143 °C
9,COC(=O)c1cc2c3ccccc3n(S(=O)(=O)c3ccccc3)c2s1,195 to 197 °C
10,NS(=O)(=O)c1ccc(-c2noc(-c3ncn4c(C(F)(F)F)cc(-c5ccc(C(F)(F)F)cc5)nc34)n2)s1,295 °C
11,COC(=O)N1Cc2ccccc2C(c2ccccc2Cl)c2ccccc21 (centres undefined),159 to 161 °C
12,Cc1csc(NC(=O)c2nc(C)cc(C#N)c2C)n1,200 °C
13,Nc1nc(-c2ccc(F)cc2)cn1N,227 to 230 °C
14,Cc1on(C(=O)N(c2ccc(Cl)cc2)C(C)C)c(=O)c1Cl,136 to 137 °C
15,Nc1ccc(OCc2nc(Cl)ccc2Cl)cc1,74 to 75 °C
16,COc1cc(C=CC=O)ccc1OCc1csc(-c2ccccc2)n1,115 to 116 °C
17,CN(C)C(=O)C1(c2ccccc2)CCNCC1,95 °C
18,Cc1cc(COc2ccc(C(=O)NC[C@@H](C(=O)NO)N3CCN(S(C)(=O)=O)CC3)cc2)c2ccccc2n1,175 °C
19,CC(=O)c1cc(-c2ccc(C(F)(F)F)cc2)oc1C,87 to 88 °C
20,CC(=Cc1ccccc1)c1cc2c(cc1Cl)C(C)(C)CCC2(C)C,114 °C
21,CCCC(=O)c1cc2c(=O)cc(C(=O)O)[nH]c2cc1C,255 to 258 °C
22,O=C(c1ccc(Cl)cc1)c1c(N2C(=O)c3ccccc3C2=O)sc(Br)c1CN1CCN(c2ccccc2)CC1,186 to 193 °C
23,CC(=O)N1N=C(c2ccncc2)OC1c1ccc(Cl)c(Cl)c1 (centres undefined),101 to 104 °C

row,SMILES,melting point
1,CCOC(=O)c1c(Cl)nn(-c2c(Cl)cc(C(F)(F)F)cc2Cl)c1N,143 to 146 °C
2,COC(=O)c1cc(-c2ccc(Cl)cc2)n(-c2ccc(S(N)(=O)=O)cc2)n1,186 °C
3,O=C(O)c1ccccc1C(=O)OCC1CN(C(=O)Oc2ccccc2)CCC1c1ccc(F)cc1 (centres undefined),149 to 151 °C
4,OC(Cn1cncn1)(c1ccc(F)cc1F)C(F)(F)SC1CC1 (centres undefined),99 to 102 °C
5,Cc1cc(-n2cncn2)ccc1N,122 to 125 °C
6,CCOC(=O)c1cnn2c1c(N1CCN(C)CC1)nc1ccccc12,234 to 236 °C
7,CSc1ccc(-c2nc(SC)c(C#N)c(=O)n2-c2ccc(F)cc2)cc1,219 to 221 °C
8,COC(=O)Cc1ccc(-c2ccc(OCCN3CCOCC3)cc2)cn1,135 to 137 °C
9,COCC(=O)Nc1nc2c(C)cccc2s1,110 to 111 °C
10,COc1cccc(NC(=O)c2cc(C)sc2Br)c1O,169 to 172 °C
11,O=C=NCCC(F)(F)C(F)(F)C(F)(F)C(F)(F)C(F)(F)C(F)(F)C(F)(F)C(F)(F)C(F)(F)C(F)(F)F,70 to 71 °C
12,Nc1ccc(CCC(=O)N(c2ccccc2)c2ccccc2)cc1N,122 to 123 °C
13,COC(=O)C(=Cc1cc(OC)cc(OC)c1)c1ccc(Oc2ccc(CBr)cc2)cc1,79 to 81 °C
14,O=C(O)Cc1ccc2c(c1)CCC(c1ccccc1F)N2 (centres undefined),117 to 118 °C
15,COC(=O)c1ccc(C(=O)N2CCN(C(=O)c3ccc(C(=O)OC)cc3)CC2)cc1,234 to 237 °C
16,Cc1ccc2c(c1Cl)C(=O)N(C1(C(N)=O)CCCCC1)C2=O,192 to 208 °C
17,Nc1nc(-c2ccncc2)nc2c1c(Cl)nn2C1CCCC1,132 to 134 °C
18,OC(CCSc1cccc2ccccc12)CCc1cccnc1 (centres undefined),58 to 59 °C
19,Cn1nnc2cccc(C=O)c21,126 °C
20,COc1ccc(Oc2c(Cl)cc(-n3ncc(=O)[nH]c3=O)cc2Cl)cc1C=O,184 to 187 °C
21,Nc1ccc(C(=O)N2CCOCC2)cc1OCc1ccc(-c2ccccc2-c2nnnn2C(c2ccccc2)(c2ccccc2)c2ccccc2)cc1,95 to 105 °C
22,CCCS(=O)(=O)N1C[C@@H](C)C[C@H](Nc2ncccc2-c2cnc3[nH]ccc3n2)C1,178 to 180 °C
23,CCc1cccc(CC(=O)O)c1OCCCc1cn(Cc2nc(-c3ccccc3)oc2C)nc1C(C)C,94 to 95 °C
